Assay [1] concerns CCRF-CEM. As to the kind of experiment: Compound was evaluated for its cytotoxicity against CEM cells. Conditions: Homo sapiens. It is filed as functional, cell-based.
Assay [2] is described as follows: Compound was evaluated for its cytotoxicity against peripheral blood mononuclear (PBM) cells. The class given is functional, cell-based. Particulars: Homo sapiens.
A short description of assay [3]: Compound was evaluated for its anti-HIV activity in vitro in peripheral blood mononuclear (PBM) cells. It is filed as functional. Conditions: Homo sapiens.
The next assay has as its system Vero. The experiment in a line: Compound was evaluated for its cytotoxicity against vero cells. It is filed as functional, cell-based. Particulars: Chlorocebus sabaeus.
Assay [4] has as its system CCRF-CEM. As to the kind of experiment: Compound was evaluated for its cytotoxicity expressed as IC50 against CEM cells. The class given is functional, cell-based. Particulars: Homo sapiens.

Each structure is given as a SMILES string.

As usually defined, the IC50 is the midpoint of a concentration-inhibition curve. For orientation: EC50 means the concentration that produces a half-maximal response. Read a low EC50 as higher potency in that assay. As a reminder, the EC90 is the concentration at which the effect reaches the 90% level. The low end stands for greater potency, the high end for weaker potency.

With `OCC1C=CC(n2cnc3c(S)ncnc32)C1` (stereo unspecified), the IC50 (with CCRF-CEM [1]; in assay [2]; with Vero) was greater than 100 µM in each case. Besides, in assay [3], the 50% effective concentration (EC50) was greater than 100 µM.
Turning to `Nc1ncnc2c1ncn2C1C=CC(CO)C1` (stereo unspecified), the IC50 (in the assay on CCRF-CEM [4]; in assay [2]; in the assay on Vero) was greater than 100 µM throughout. Besides, in assay [3], the EC50 was 2.4 µM. Also, it took 11.7 µM to reach the 90% level in assay [3] (EC90).
For `Cc1cn([C@H]2C[C@H](N=[N+]=[N-])[C@@H](CO)O2)c(=O)[nH]c1=O` [ZIDOVUDINE], in assay [2], the 50% inhibitory concentration (IC50) is greater than 100 µM. The same compound registered an EC50 in assay [3] of 0.004 µM.

The record behind these values is ChEMBL document CHEMBL1130850, “Asymmetric synthesis and anti-HIV activity of L-carbocyclic 2',3'-didehydro-2',3'-dideoxyadenosine” (Bioorg Med Chem Lett, 1998).
